Values joined by “and” are separate entries in the source; they are usually repeats but may differ in a detail not shown here. Equal values may be shown once. Read-outs that look alike come from different tables or passages of the source.
Experiments:
[1] = system: Multiple Sclerosis; settings: two phase III trials; cited from earlier work
[2] = in vivo; cited from earlier work
[3] = system: MOG induced EAE in C57 BI mice; assay: Interferon-β s.c. daily alone or in combination with laquinimod in chronic MOG induced EAE; type: in vivo, C57BL/6 mice; settings: for Activity compared to Laquinimod: Table 6
[4] = Laquinimod 10 mg/kg oral QD, compared to vehicle
[5] = Laquinimod 25 mg/kg oral QD, compared to laquinimod (10 mg/kg)
[6] = Laquinimod 25 mg/kg oral QD, compared to vehicle

CCN(C(=O)c1c(O)c2c(Cl)cccc2n(C)c1=O)c1ccccc1 [Laquinimod]
Safety and tolerability profile [1]: favorable
Oral bioavailability [2]: high
Mean Onset [3]: 21.4 ± 8.2 days
GMS value (group mean score) ([3]; Laquinimod 10 mg/kg oral QD): 0.8 ± 0.8 and 0.8
Incidence ([3]; Laquinimod 10 mg/kg oral QD): 8/13
MMS value (mean maximal score) ([3]; Laquinimod 10 mg/kg oral QD): 1.8 ± 1.7
Mean Duration ([3]; Laquinimod 10 mg/kg oral QD): 9.2 ± 8.3 days
Mean Onset ([3]; Laquinimod 10 mg/kg oral QD): 21.3 ± 8.2 days
Mortality ([3]; Laquinimod 10 mg/kg oral QD): 0/13
% inhibition 1 (incidence) [3, 4]: 38.5%
% inhibition 2 (MMS) [3, 4]: 43.8%
% inhibition 3 (GMS); Activity [3, 4]: 60%
% inhibition 3 (GMS); Activity ([3]; Laquinimod 10 mg/kg oral QD, compared to vehicle, listed as laquinimod): 60%
GMS value (group mean score) ([3]; Laquinimod 10 mg/kg oral QD, listed as Laquinmod): 0.8 ± 0.8
Activity compared to Laquinimod ([3]; Laquinimod 10 mg/kg): 60%
GMS value (group mean score) ([3]; Laquinimod 25 mg/kg oral QD): 0.3
Incidence ([3]; Laquinimod 25 mg/kg oral QD): 5/15
MMS value (mean maximal score) ([3]; Laquinimod 25 mg/kg oral QD): 0.8 ± 1.3
Mean Duration ([3]; Laquinimod 25 mg/kg oral QD): 5.0 ± 7.4 days
Mean Onset ([3]; Laquinimod 25 mg/kg oral QD): 25.7 ± 7.8 days
Mortality ([3]; Laquinimod 25 mg/kg oral QD): 0/15
% inhibition 1 (incidence) [3, 5]: 37.5%
% inhibition 2 (MMS) [3, 5]: 55.5%
% inhibition 3 (GMS) [3, 5]: 62.5%
% inhibition 1 (incidence) [3, 6]: 61.5%
% inhibition 2 (MMS) [3, 6]: 75.0%
% inhibition 3 (GMS); Activity [3, 6]: 85%
% inhibition 3 (GMS); Activity ([3]; Laquinimod 25 mg/kg oral QD, compared to vehicle, listed as Laquiniomd): 85.0%
GMS value (group mean score) ([3]; Laquinimod 25 mg/kg oral QD, listed as Laquiniomd): 0.3 ± 0.5
GMS value (group mean score) ([3]; Laquinimod 25 mg/kg oral QD, listed as Laquinmod): 0.3 ± 0.5
Activity compared to Laquinimod ([3]; Laquinimod 25 mg/kg): 85%
Activity compared to interferon-β (500,000 IU/mouse) ([3]; Laquinimod 25 mg/kg, according to GMS): 66.7%^
